Patent US20040127571A1 (UNIVERSITY OF SOUTH FLORIDA, priority 2002, published 2004)

Assays:
[1] = tested on: K562 cells; test: Apoptosis of K562 cells after SAHA exposure; format: cell-based; conditions: 1.0 to 10.0 uM SAHA for 48 hours; FIG. 2A
[2] = tested on: Lama-84 cells; test: Apoptosis of Lama-84 cells after SAHA exposure; format: cell-based; conditions: 1.0 to 10.0 uM SAHA for 48 hours; FIG. 2A
[3] = tested on: K562; test: Cell cycle distribution of K562 cells after SAHA; format: cell-based; conditions: 1.0 to 5.0 uM SAHA for 48 hours; dose-dependent
Protocol: Treatment with 1.0 to 5.0 uM SAHA for 48 hours increased the percentage of K562 in the G1 (the gap in the cell division cycle between mitosis and synthesis) phase of the cell cycle in a dose-dependent manner.

[4] = tested on: histones (H3), p21; test: Histone acetylation and p21 expression after SAHA (FIG. 2B); format: cell-based
Excerpt: (§1) Moreover, exposure to SAHA increases the acetylation of histones (H3) and the expression of p21 (FIG. 2B). […] SAHA downregulates the levels and auto-phosphorylation, the addition of a phosphate group, of Bcr-Abl (FIG. 2C).

[5] = tested on: p27 in K562 cells; test: p27 expression in K562 cells after SAHA (FIG. 2B); format: cell-based
Excerpt: as §1

[6] = tested on: p27 in LAMA cells; test: p27 expression in LAMA cells after SAHA (FIG. 2B); format: cell-based
Excerpt: as §1

[7] = tested on: Bcr-Abl; test: Bcr-Abl levels and auto-phosphorylation after SAHA (FIG. 2C); format: cell-based
Excerpt: as §1

[8] = tested on: imatinib refractory (resistant) cells; test: Apoptosis of imatinib refractory cells after SAHA; format: cell-based
[9] = tested on: p27 (gene); conditions: previously shown; cited from earlier work

SMILES: O=C(CCCCCCC(=O)Nc1ccccc1)NO [SAHA, Suberoylanilide Hydromaxic Acid]
- apoptosis of K562 cells [1]: dose-dependent increase
- apoptosis of Lama-84 cells [2]: dose-dependent increase
- percentage of K562 in the G1 phase of the cell cycle [3]: increased
- acetylation of histones (H3) [4]: increases
- expression of p21 [4]: increases
- p27 expression [5]: induced p27 expression
- p27 expression [6]: induced p27 expression
- auto-phosphorylation of Bcr-Abl [7]: downregulates
- levels of Bcr-Abl [7]: downregulates
- apoptosis in imatinib refractory (resistant) cells [8]: induces apoptosis
- acetylation of histones of the chromatin associated with p27 (gene) / its transcription [9]: not to induce acetylation
